What was measured:
hESCs [1] = assay: Cell death analysis of dissociated hESCs in suspension culture; format: cell-based, human
Text: hESCs are known to be difficult in forming embryoid bodies (EBs) in suspension culture after single cell dissociation due to extensive cell death. Thus, we also tested whether Tzv or Ptn could promote survival of dissociated hESCs in suspension. […] Because cell aggregation is most often mediated through cell-cell adhesions and E-cadherin is the primary cell-cell adhesion molecule, as well as highly expressed in hESCs (Eastham, A. M. et al., Cancer Res 67 (23): 11254-11262 (2007)), we tested the effect of a specific E-cadherin blocking antibody on multicellular aggregate formation.
The hESCs under different treatments were dissociated by trypsin and fixed by 4% paraformaldehyde. And the staining was carried out according to the manufacturer's instructions (MBL Laboratories, Watertown, Mass.). After staining, samples were analysed by flow cytometry using a FACS Calibur flow cytometer (BD).

hESCs [2] = assay: Cell adhesion assay; format: cell-based, human
Method: Cell adhesion assays were performed in 96-well microtiter plates coated with Matrigel. After trypsin, hESCs were resuspended in the chemically-defined media containing the desired compounds. Cells were then added to the microtiter wells and incubated for 3 h at 37° C. Unbound and loosely bound cells were removed by shaking and washing, and the remaining cells were then fixed immediately. The wells were washed 3 times with 200 μl of H2O, and attached cells were stained with Crystal Violet (Sigma). The absorbance of each well at 570 nm was then measured. For experiments with blocking antibodies, cells were pre-incubated with antibodies on ice for 30 min, and adhesion assays were performed in the presence of antibodies. Each sample was assayed independently for three times.

E-cadherin = E-cadherin expression in hESCs after trypsin dissociation (Western blot, flow cytometry, RT-PCR); format: cell-based, human
Text: We then examined E-cadherin expression in hESCs after trypsin dissociation. […] This observation was consistent with the report that the extracellular region of E-cadherin has an endoproteolytic cleavage site near the transmembrane domain (Damsky, C. H. et al., Cell 34 (2):455-466 (1983)). […] Therefore, Tzv is likely to affect cell adhesion by modulating cell surface level of E-cadherins. […] It is likely that Tzv exerts its effect through stabilization of E-cadherin on the cell surface.
To assess the expression of E-cadherin, activated integrin and SSEA4, dissociated cells (3×10^5) were washed with PBS and resuspended in PBS containing 2% goat serum. Cells were then incubated with the appropriate antibody for 1 h at 4° C., washed with the blocking solution, and labeled with FITC-conjugated secondary antibody for 30 min at 4° C. Cells were then washed and analyzed on a FACS Calibur flow cytometer.

[3] = tested on: epithelial to mesenchymal transition/EMT; assay: Induction of MET / inhibition of EMT; format: cell-based

O=C(NCc1ccccc1)c1csc(Nc2ccncn2)n1 [Tzv, N-benzyl-2-(pyrimidin-4-ylamino)thiazole-4-carboxamide]
survival of dissociated hESCs in suspension culture (hESCs [1]): greatly improved survival
adhesion of dissociated hESCs to Matrigel or laminin (hESCs [2]): dramatically increased adhesion
adhesion of hESCs to gelatin or poly-lysine (hESCs [2]): not affected
cell surface E-cadherins (E-cadherin; flow cytometry): significantly increased
E-cadherin transcripts vs mock controls (E-cadherin; semiquantitative RT-PCR): comparable amounts
full-length E-cadherin expression after trypsin dissociation (E-cadherin; time-course Western blot): significantly increased
MET induction and EMT inhibition [3]: can induce MET (the reverse of EMT) and inhibit EMT
